Read-outs that look alike come from different tables or passages of the source.
Tests used:
caspases 3/7 [1] = type: cell-based, human
caspases 3/7 [2] = type: cell-based, human; remark: listed apart in the source
[3] = tested on: primary human lung microvascular endothelial cells (MVE)
[4] = tested on: primary human lung fibroblasts (FB)
[5] = tested on: primary human lung microvascular endothelial cells (MVE); remark: listed apart in the source
MERS-CoV [6] = type: cell-based
MERS-CoV [7] = type: cell-based; remark: listed apart in the source
[8] = tested on: primary human lung fibroblasts (FB); remark: listed apart in the source

| Compound | caspase 3/7 activation above untreated infected cells (caspases 3/7 [1]) | caspase 3/7 activation above untreated infected cells (caspases 3/7 [2]) | cytotoxicity (CellTiter-Glo cell viability) [3] | caspase 3/7 activation (caspases 3/7 [1]) | cell viability [4] | cell viability [5] | caspase 3/7 activation (caspases 3/7 [2]) | MERS-CoV replication (nanoluciferase expression) (MERS-CoV [6]) | MERS-CoV replication (nanoluciferase expression) (MERS-CoV [7]) | cytotoxicity (CellTiter-Glo cell viability) [8] |
| --- | --- | --- | --- | --- | --- | --- | --- | --- | --- | --- |
| Cc1ccc2cc(-c3c(C)ccc(C(=O)c4c(-c5ccccc5)n(C)n(-c5ccccc5)c4=O)c3N)ccc2n1 [AMG PERK 44] | No significant dose responsive change in caspase 3/7 activation above untreated infected cells | No significant dose responsive change in caspase 3/7 activation above untreated infected cells | dose dependent increase in cytotoxicity |  |  |  |  |  |  |  |
| C[C@H](CCC(=O)O)C[C@H](C)C[C@H](C)C(=O)/C=C(\O)[C@H](C)C[C@H](C)C/C=C/[C@@H](C)[C@@H](O)[C@@H](C)[C@@H](O)C[C@@H]1CC[C@@](C)([C@H]2CC[C@@](C)([C@@H](C)O)O2)O1 [ionomycin] |  |  |  | did not induce caspase 3/7 activation | diminished cell viability | diminished cell viability | did not induce caspase 3/7 activation |  |  |  |
| CN[C@@H]1C[C@H]2O[C@@](C)([C@@H]1OC)n1c3ccccc3c3c4c(c5c6ccccc6n2c5c31)C(=O)NC4 [staurosporine] |  |  |  | significantly induced caspase 3/7 activation | diminished cell viability | diminished cell viability | significantly induced caspase 3/7 activation |  |  |  |
| O=C(COc1ccc(Cl)cc1)NC1CCC(NC(=O)COc2ccc(Cl)cc2)CC1 (stereo not drawn) [trans-ISRIB] |  |  | not cytotoxic at any dose tested |  |  |  |  | did not alter MERS-CoV replication in either infected MVE or FB | did not alter MERS-CoV replication in either infected MVE or FB | not cytotoxic at any dose tested |
